Values after ≈ are worked out from the molar mass of the structure shown. Values joined by “and” are separate entries in the source; they are usually repeats but may differ in a detail not shown here. Identical values can stand only once. Like-named read-outs stand apart in the source and are kept apart here.
Assays:
Format in all cases: cell-based
[1] = test system: Candida tropicalis ATCC 750; test: In vitro study of inhibition of growth and lethality against yeast (MIC/MLC susceptibility test), isolate A; conditions: for Minimum Lethal Concentration (MLC), A: Table 4B summary, isolate A
[2] = test system: Candida albicans KJP-000531594; test: In vitro study of inhibition of growth and lethality against yeast (MIC/MLC susceptibility test), isolate C; conditions: for Minimum Inhibitory Conc. (MIC), 48 hr. / MIC / Minimum Inhibitory Conc. (MIC), 24 hr.: Candida albicans; for Minimum Lethal Concentration (MLC), C: Table 4B summary, isolate C
[3] = test system: Cryptococcus neoformans DLB-1027594CNC; test: In vitro study of inhibition of growth and lethality against yeast (MIC/MLC susceptibility test), isolate G; conditions: for MIC: DLB1027594CNC; for Minimum Lethal Concentration (MLC), G: Table 4B summary, isolate G
[4] = test system: Torulopsis glabrata JHC-BC9951635; test: In vitro study of inhibition of growth and lethality against yeast (MIC/MLC susceptibility test), isolate E; conditions: for MIC: Nakaseomyces glabratus; for MIC / Minimum Inhibitory Conc. (MIC), 48 hr. / Minimum Inhibitory Conc. (MIC), 24 hr.: isolate assigned by line order; for Minimum Lethal Concentration (MLC), E: Table 4B summary, isolate E
[5] = test system: Cryptococcus neoformans SLP-BC0012854; test: In vitro study of inhibition of growth and lethality against yeast (MIC/MLC susceptibility test), isolate H; conditions: for Minimum Lethal Concentration (MLC), H: Table 4B summary, isolate H
[6] = test system: Candida albicans LH-000664533; test: In vitro study of inhibition of growth and lethality against yeast (MIC/MLC susceptibility test), isolate D; conditions: for Minimum Lethal Concentration (MLC), D: Table 4B summary, isolate D
[7] = test system: Torulopsis glabrata ERH-BC9938274; test: In vitro study of inhibition of growth and lethality against yeast (MIC/MLC susceptibility test), isolate F; conditions: for MIC: Nakaseomyces glabratus; for Minimum Inhibitory Conc. (MIC), 24 hr.: read at 24 hr; for Minimum Lethal Concentration (MLC), F: Table 4B summary, isolate F
[8] = test system: Candida tropicalis ATCC 28707; test: In vitro study of inhibition of growth and lethality against yeast (MIC/MLC susceptibility test), isolate B; conditions: for Minimum Lethal Concentration (MLC), B: Table 4B summary, isolate B
[9] = 1st pair of lines, read at 48 hr, isolate assigned by line order
[10] = Cryptococcus neoformans, 1st pair of lines, read at 72 hr, isolate assigned by line order
[11] = Torulopsis glabrata, 2nd pair of lines, read at 48 hr
[12] = 1st pair of lines, read at 24 hr, isolate not given, assigned by line order and MLC of Table 4B
[13] = Torulopsis glabrata, 2nd pair of lines, read at 24 hr
[14] = Torulopsis glabrata, 1st pair of lines, isolate assigned by line order

OC(Cn1cncn1)(Cn1cncn1)c1ccc(F)cc1F [Fluconazole]
MIC ([1]; Candida tropicalis, ATCC750, 24 h, Candida tropicalis, 2nd pair of lines, read at 24 hr, isolate assigned by line order, read-out: Minimum Inhibitory Conc. (MIC), 24 hr.): 1 µg/mL (≈ 3.27 µM) | MIC ([1]; Candida tropicalis, ATCC750, 48 h, Candida tropicalis, 2nd pair of lines, read at 48 hr, isolate assigned by line order, read-out: Minimum Inhibitory Conc. (MIC), 48 hr.): 4 µg/mL (≈ 13.1 µM) | Minimum Inhibitory Conc. (MIC), 48 hr. [2, 9]: 2 µg/mL | MIC ([2]; KJP000531594, 24 h, 1st pair of lines, read at 24 hr, isolate not given, assigned by line order and MLC of Table 4B, read-out: Minimum Inhibitory Conc. (MIC), 24 hr.): 0.5 µg/mL (≈ 1.63 µM) | MIC ([2]; KJP000531594, 48 h, 1st pair of lines, read at 48 hr, isolate assigned by line order, read-out: Minimum Inhibitory Conc. (MIC), 48 hr.): 1 µg/mL (≈ 3.27 µM) | Minimum Inhibitory Conc. (MIC), 72 hr. [3, 10]: 64 µg/mL | MIC ([3]; Cryptococcus neoformans, 48 h, Cryptococcus neoformans, 1st pair of lines, read at 48 hr, isolate assigned by line order, read-out: Minimum Inhibitory Conc. (MIC), 48 hr.): > 64 µg/mL | MIC ([3]; Cryptococcus neoformans, 72 h, Cryptococcus neoformans, 1st pair of lines, read at 72 hr, isolate assigned by line order, read-out: Minimum Inhibitory Conc. (MIC), 72 hr.): > 64 µg/mL | MIC ([4]; JHCBC9951635, 24 h, Torulopsis glabrata, 2nd pair of lines, read at 24 hr, read-out: Minimum Inhibitory Conc. (MIC), 24 hr.): 2 µg/mL (≈ 6.53 µM) | MIC ([4]; JHCBC9951635, 48 h, Torulopsis glabrata, 2nd pair of lines, read at 48 hr, read-out: Minimum Inhibitory Conc. (MIC), 48 hr.): 8 µg/mL (≈ 26.1 µM) | Minimum Inhibitory Conc. (MIC), 48 hr. [4, 11]: 4 µg/mL | MIC ([5]; Cryptococcus neoformans, SLPBC0012854, 48 h, Cryptococcus neoformans, 2nd pair of lines, read at 48 hr, isolate assigned by line order, read-out: Minimum Inhibitory Conc. (MIC), 48 hr.): 4 µg/mL (≈ 13.1 µM) | MIC ([5]; Cryptococcus neoformans, SLPBC0012854, 72 h, Cryptococcus neoformans, 2nd pair of lines, read at 72 hr, isolate assigned by line order, read-out: Minimum Inhibitory Conc. (MIC), 72 hr.): 4 µg/mL (≈ 13.1 µM)

COC(=O)c1cc2cc(OCc3ccccc3)ccc2n1CCCCCCCCC[n+]1ccccc1 [Compound 230]
MIC ([1]; Candida tropicalis, ATCC750, 24 h, read-out: Minimum Inhibitory Conc. (MIC), 24 hr.): 1 µg/mL | MIC ([1]; Candida tropicalis, ATCC750, 48 h, read-out: Minimum Inhibitory Conc. (MIC), 48 hr.): 1 µg/mL | Minimum Inhibitory Conc. (MIC), 24 hr. [2, 12]: 0.5 µg/mL | MIC ([2]; KJP000531594, 24 h, read-out: Minimum Inhibitory Conc. (MIC), 24 hr., Candida albicans, 1st pair of lines, read at 24 hr, isolate not given, assigned by line order and MLC of Table 4B): 1 µg/mL | MIC ([2]; KJP000531594, 48 h, read-out: Minimum Inhibitory Conc. (MIC), 48 hr., Candida albicans, 1st pair of lines, read at 48 hr, isolate assigned by line order): 1 µg/mL | MIC ([3]; Cryptococcus neoformans, 48 h, read-out: Minimum Inhibitory Conc. (MIC), 48 hr.): 1 µg/mL | MIC ([3]; Cryptococcus neoformans, 72 h, read-out: Minimum Inhibitory Conc. (MIC), 72 hr.): 1 µg/mL | MIC ([6]; Candida albicans, LH000664533, 24 h, read-out: Minimum Inhibitory Conc. (MIC), 24 hr.): 1 µg/mL | MIC ([6]; Candida albicans, LH000664533, 48 h, read-out: Minimum Inhibitory Conc. (MIC), 48 hr.): 1 µg/mL | MIC ([4]; JHCBC9951635, 24 h, read-out: Minimum Inhibitory Conc. (MIC), 24 hr., Torulopsis glabrata, 2nd pair of lines, read at 24 hr): 1 µg/mL | MIC ([4]; JHCBC9951635, 48 h, read-out: Minimum Inhibitory Conc. (MIC), 48 hr., Torulopsis glabrata, 2nd pair of lines, read at 48 hr): 2 µg/mL | Minimum Inhibitory Conc. (MIC), 24 hr. [4, 13]: 2 µg/mL | MIC ([7]; ERHBC9938274, 24 h, read-out: Minimum Inhibitory Conc. (MIC), 24 hr., Torulopsis glabrata, 1st pair of lines, read at 24 hr, isolate assigned by line order): 1 µg/mL | MIC ([7]; ERHBC9938274, 48 h, read-out: Minimum Inhibitory Conc. (MIC), 48 hr., Torulopsis glabrata, 1st pair of lines, read at 48 hr, isolate assigned by line order): 2 µg/mL | Minimum Inhibitory Conc. (MIC), 24 hr. [7, 14]: 2 µg/mL | MIC ([5]; Cryptococcus neoformans, SLPBC0012854, 48 h, read-out: Minimum Inhibitory Conc. (MIC), 48 hr.): 1 µg/mL | MIC ([5]; Cryptococcus neoformans, SLPBC0012854, 72 h, read-out: Minimum Inhibitory Conc. (MIC), 72 hr.): 1 µg/mL | MIC ([8]; Candida tropicalis, ATCC28707, 24 h, read-out: Minimum Inhibitory Conc. (MIC), 24 hr.): 0.5 µg/mL | MIC ([8]; Candida tropicalis, ATCC28707, 48 h, read-out: Minimum Inhibitory Conc. (MIC), 48 hr.): 0.5 µg/mL

C[C@@H]1[C@H](O)[C@@H](C)/C=C/C=C/C=C/C=C/C=C/C=C/C=C/[C@H](O[C@@H]2O[C@H](C)[C@@H](O)[C@H](N)[C@@H]2O)C[C@@H]2O[C@](O)(C[C@@H](O)C[C@@H](O)[C@H](O)CC[C@@H](O)C[C@@H](O)CC(=O)O[C@H]1C)C[C@H](O)[C@H]2C(=O)O [Amphotericin B]
Minimum Inhibitory Conc. (MIC), 24 hr. ([1]; Candida tropicalis, 2nd pair of lines, read at 24 hr, isolate assigned by line order): 0.5 µg/mL | Minimum Inhibitory Conc. (MIC), 48 hr. ([1]; Candida tropicalis, 2nd pair of lines, read at 48 hr, isolate assigned by line order): 0.5 µg/mL and 1 µg/mL | Minimum Inhibitory Conc. (MIC), 24 hr. [2, 12]: 0.5 µg/mL | Minimum Inhibitory Conc. (MIC), 48 hr. [2, 9]: 1 µg/mL | Minimum Inhibitory Conc. (MIC), 48 hr. ([3]; Cryptococcus neoformans, 1st pair of lines, read at 48 hr, isolate assigned by line order): 0.25 µg/mL | Minimum Inhibitory Conc. (MIC), 72 hr. [3, 10]: 0.25 µg/mL | Minimum Inhibitory Conc. (MIC), 24 hr. ([6]; Candida albicans, 2nd pair of lines, read at 24 hr, isolate assigned by line order): 0.5 µg/mL | Minimum Inhibitory Conc. (MIC), 48 hr. ([6]; Candida albicans, 2nd pair of lines, read at 48 hr, isolate assigned by line order): 0.5 µg/mL | Minimum Inhibitory Conc. (MIC), 24 hr. [4, 13]: 0.5 µg/mL | Minimum Inhibitory Conc. (MIC), 48 hr. [4, 11]: 1 µg/mL and 0.5 µg/mL | Minimum Inhibitory Conc. (MIC), 24 hr. [7, 14]: 0.5 µg/mL | Minimum Inhibitory Conc. (MIC), 48 hr. ([7]; Torulopsis glabrata, 1st pair of lines, read at 48 hr, isolate assigned by line order): 1 µg/mL | Minimum Inhibitory Conc. (MIC), 48 hr. ([5]; Cryptococcus neoformans, 2nd pair of lines, read at 48 hr, isolate assigned by line order): 0.5 µg/mL and 0.25 µg/mL | Minimum Inhibitory Conc. (MIC), 24 hr. ([8]; Candida tropicalis, 1st pair of lines, read at 24 hr, isolate assigned by line order): 2 µg/mL | Minimum Inhibitory Conc. (MIC), 48 hr. ([8]; Candida tropicalis, 1st pair of lines, read at 48 hr, isolate assigned by line order): 4 µg/mL

COC(=O)c1cc2cc(OCc3ccccc3)ccc2n1CCCCCCOC(=O)c1cccnc1 [Compound 0951]
Minimum Lethal Concentration (MLC), A [1]: 1 µg/mL | Minimum Lethal Concentration (MLC), C [2]: 1 µg/mL | Minimum Lethal Concentration (MLC), G [3]: 4 µg/mL | Minimum Lethal Concentration (MLC), D [6]: 2 µg/mL | Minimum Lethal Concentration (MLC), E [4]: 2 µg/mL | Minimum Lethal Concentration (MLC), F [7]: 2 µg/mL | Minimum Lethal Concentration (MLC), H [5]: 4 µg/mL | Minimum Lethal Concentration (MLC), B [8]: 1 µg/mL

Fc1cc(F)c2[nH]c(CCCC[n+]3cccc4ccccc43)cc2c1 [Compound 0409]
Minimum Lethal Concentration (MLC), A [1]: 1 µg/mL | Minimum Lethal Concentration (MLC), C [2]: 1 µg/mL | Minimum Lethal Concentration (MLC), G [3]: 2 µg/mL | Minimum Lethal Concentration (MLC), D [6]: 1 µg/mL | Minimum Lethal Concentration (MLC), E [4]: 2 µg/mL | Minimum Lethal Concentration (MLC), F [7]: 2 µg/mL | Minimum Lethal Concentration (MLC), H [5]: 2 µg/mL | Minimum Lethal Concentration (MLC), B [8]: 0.5 µg/mL
